Source: patent US20090227602A1, “COMPOSITIONS AND TREATMENTS FOR INHIBITING KINASE AND/OR HMG-COA REDUCTASE” (priority 2005, published 2009)
Where a name gives a salt, the structure may show the parent alone. Read-outs that look alike come from different tables or passages of the source.

Tests used:
[1] = tested on: lipopolysaccharide-stimulated release of TNFα from human peripheral blood mononuclear cells (PBMC); experiment: Whole cell LPS-stimulated TNF-α release assay; format: cell-based; settings: read-out: TNFα Release IC50
Procedure: (§1) The biological activities of compounds of the present invention were measured in assays which include: • 1) Inhibition of rat liver HMG-CoA reductase. Further details on the assay are present in Heller, R. A.; Gould, R. G. Biochem. Biophys. Research Commun. 1973, 50, 859 and Kubo, M.; Strott, C. A.; Endocrinology 1987, 120, 214. • 2) Inhibition of recombinant human p38αMAPK • 3) Inhibition of lipopolysaccharide (LPS)-stimulated release of tumor necrosis factor alpha (TNFα) from human peripheral blood mononuclear cells (PBMC).
Whole Cell LPS-Stimulated TNF-α Release Assay: The procedure as described in Welker et al., Int. Arch. Allergy and Immunol. 109:110-115 (1996) was followed. Briefly, a candidate compound and/or vehicle was preincubated with human peripheral blood mononuclear leukocytes (PBML, 5×10^5/ml) cells in AIM-V medium pH 7.4 for 2 hours. Lipopolysaccharide (LPS, 25 ng/ml) was added to stimulate the cells, which was incubated overnight at 37° C. TNF-α cytokine levels in the conditioned medium was then quantitated using a sandwich ELISA kit.

[2] = biological target: T1, recombinant human p38α MAPK (Homo sapiens, UniProt Q16539); experiment: Human p38α MAP kinase inhibition assay (cell-free); format: biochemical; settings: MBP substrate, 100 μM ATP
T1 construct: purchased UBI 14-251; host or cells: E. coli
T1 sequence (Q16539 whole entry): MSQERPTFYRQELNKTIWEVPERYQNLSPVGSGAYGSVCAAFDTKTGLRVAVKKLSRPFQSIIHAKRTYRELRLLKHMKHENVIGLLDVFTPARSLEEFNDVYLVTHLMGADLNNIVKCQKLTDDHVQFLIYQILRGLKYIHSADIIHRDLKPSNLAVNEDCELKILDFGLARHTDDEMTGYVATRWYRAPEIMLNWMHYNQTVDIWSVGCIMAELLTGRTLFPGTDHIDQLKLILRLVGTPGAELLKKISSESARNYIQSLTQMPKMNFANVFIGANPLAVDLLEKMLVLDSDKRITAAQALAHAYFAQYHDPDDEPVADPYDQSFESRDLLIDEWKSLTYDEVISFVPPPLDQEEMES
Procedure: as §1
Human p38αMAP Kinase Inhibition Assay: In vitro cell-free p38αMAP kinase inhibition assays were conducted by the method as described in Clerk et al., FEBS Lett., 426:93-96 (1998) for a number of lactones in formulas I/IIa/IIb. Briefly, human recombinant p38α protein kinase expressed in E. coli (UBI #14-251) was used. Myelin basic protein (MBP, UBI #13-110) was employed as substrate, and microtiter plate wells were coated with MBP (0.01 mg/ml) overnight at 4° C. Candidate compound and/or vehicle was preincubated with 0.075 μg/mL enzyme in modified HEPES buffer pH 7.4 at 25° C. for 15 minutes. The reaction was initiated by addition of 100 μM ATP and allowed to proceed for another 60 minutes. The reaction was terminated by aspirating the solution. Phosphorylated MBP was detected by incubation with a mouse monoclonal IgG2a anti-phosphoMBP antibody. Bound anti-phosphoMBP antibody was quantitated by incubation with a HRP conjugated goat anti-mouse IgG. The protein kinase activity was proportional to the readings of optical density at 405 nm resulting from reaction with an ABTS Microwell Peroxidase Substrate System.

[3] = biological target: T2, rat liver hydroxymethylglutaryl-CoA reductase (Rattus norvegicus, UniProt P51639); experiment: Inhibition of rat liver HMG-CoA reductase; format: biochemical; settings: rat liver HMG-CoA reductase activity inhibited by 50%; read-out: HMG-CoA R IC50
T2 sequence (P51639 1-887): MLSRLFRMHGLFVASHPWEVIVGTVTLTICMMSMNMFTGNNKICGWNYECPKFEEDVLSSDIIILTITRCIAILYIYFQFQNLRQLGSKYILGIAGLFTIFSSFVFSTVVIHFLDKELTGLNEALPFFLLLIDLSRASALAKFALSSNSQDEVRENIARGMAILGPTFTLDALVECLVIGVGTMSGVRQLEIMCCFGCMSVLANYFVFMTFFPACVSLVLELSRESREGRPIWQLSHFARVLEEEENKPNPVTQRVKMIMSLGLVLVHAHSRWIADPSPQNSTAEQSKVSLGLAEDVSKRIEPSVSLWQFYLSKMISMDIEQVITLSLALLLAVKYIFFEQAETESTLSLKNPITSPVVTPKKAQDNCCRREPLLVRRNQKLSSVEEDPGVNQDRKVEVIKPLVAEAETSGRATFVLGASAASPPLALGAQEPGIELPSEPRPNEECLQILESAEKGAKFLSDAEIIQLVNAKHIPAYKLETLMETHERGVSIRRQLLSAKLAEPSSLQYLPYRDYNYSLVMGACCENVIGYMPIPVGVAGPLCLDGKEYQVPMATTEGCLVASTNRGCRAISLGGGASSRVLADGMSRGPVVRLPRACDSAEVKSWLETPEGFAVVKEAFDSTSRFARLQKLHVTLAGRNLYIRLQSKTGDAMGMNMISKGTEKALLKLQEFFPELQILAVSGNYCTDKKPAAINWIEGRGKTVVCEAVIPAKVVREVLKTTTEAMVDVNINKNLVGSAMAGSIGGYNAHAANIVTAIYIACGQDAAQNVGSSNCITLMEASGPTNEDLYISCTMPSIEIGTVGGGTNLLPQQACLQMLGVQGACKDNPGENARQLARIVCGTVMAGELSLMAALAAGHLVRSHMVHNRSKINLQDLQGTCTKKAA
Procedure: as §1

Row | Structure (SMILES) | IC50 ([1]; LPS-stimulated human PBMC) [nM] | IC50 [2] [nM] | IC50 [3] [nM] | IC50 ([1]; Homo sapiens, PBMC) [nM]
1 | CC(C)c1nc(-c2ccc(F)cc2)c(-c2ccnc(Nc3ccccc3)n2)n1/C=C/[C@@H](O)C[C@@H](O)CC(=O)O (racemic) [Example 28, (3R,5S,E) and (3S,5R,E)-7-(4-(4-fluorophenyl)-2-isopropyl-5-(2-(phenylamino)pyrimidin-4-yl)-1H-imidazol-1-yl)-3,5-dihydroxyhept-6-enoic acid sodium salt] | 9700 | 270 | 4.8 | –
2 | CC(C)c1nc(-c2ccc(F)cc2)c(-c2ccnc(Nc3ccccc3)n2)n1/C=C/[C@@H]1C[C@@H](O)CC(=O)O1 (racemic) [Example 29, (4R,6S) and (4S,6R)-6-((E)-2-(4-(4-fluorophenyl)-2-isopropyl-5-(2-(phenylamino)pyrimidin-4-yl)-1H-imidazol-1-yl)vinyl)-4-hydroxytetrahydro-2H-pyran-2-one] | 19000 | < 100 | – | –
3 | CC(C)(C)c1nc(-c2ccc(F)cc2)c(-c2ccncc2)n1/C=C/[C@@H](O)C[C@@H](O)CC(=O)O (racemic) [Example 33, (3R,5S,E) and (3S,5R,E)-7-(2-tert-butyl-4-(4-fluorophenyl)-5-(pyridin-4-yl)-1H-imidazol-1-yl)-3,5-dihydroxyhept-6-enoic acid sodium salt] | 230000 | 6000 | 11 | –
4 | CC(C)(C)c1nc(-c2ccc(F)cc2)c(-c2ccncc2)n1/C=C/[C@@H]1C[C@@H](O)CC(=O)O1 (racemic) [Example 34, (4R,6S) and (4S,6R)-6-((E)-2-(2-tert-butyl-4-(4-fluorophenyl)-5-(pyridin-4-yl)-1H-imidazol-1-yl)vinyl)-4-hydroxytetrahydro-2H-pyran-2-one] | 190000 | 1800 | – | –
5 | CC(C)c1nc(-c2ccc(F)cc2)c(-c2ccnc(Nc3ccccc3)n2)n1CC[C@@H]1C[C@@H](O)CC(=O)O1 [Example 24, (4R,6R)-6-(2-(4-(4-fluorophenyl)-2-isopropyl-5-(2-(phenylamino)pyrimidin-4-yl)-1H-imidazol-1-yl)ethyl)-4-hydroxytetrahydro-2H-pyran-2-one] | < 3000 | 110 | – | –
6 | CC(C)c1nc(-c2ccc(F)cc2)c(-c2ccnc(Nc3ccccc3)n2)n1CC[C@@H](O)C[C@@H](O)CC(=O)O [Example 25, (3R,5R)-7-(4-(4-fluorophenyl)-2-isopropyl-5-(2-(phenylamino)pyrimidin-4-yl)-1H-imidazol-1-yl)-3,5-dihydroxyheptanoic acid sodium salt] | 9700 | < 100 | 98 | –
7 | O=C(O)C[C@H](O)C[C@H](O)CCn1c(-c2ccccc2)nc(-c2ccc(F)cc2)c1-c1ccncn1 [Example 39, (3R,5R)-7-(4-(4-fluorophenyl)-2-phenyl-5-(pyrimidin-4-yl)-1H-imidazol-1-yl)-3,5-dihydroxyheptanoic acid calcium salt] | – | 14000 | > 1000 | > 300000
8 | O=C1C[C@H](O)C[C@@H](CCn2c(-c3ccccc3)nc(-c3ccc(F)cc3)c2-c2ccncn2)O1 [Example 40, (4R,6R)-6-(2-(4-(4-fluorophenyl)-2-phenyl-5-(pyrimidin-4-yl)-1H-imidazol-1-yl)ethyl)-4-hydroxytetrahydro-2H-pyran-2-one] | 26000 | 1400 | – | –
